From the supplement of paper PMC10307832

Legend:
Assay in all cases: relative viability (nuclei count vs DMSO), 5 days (fraction); higher = more cells survive
NCI-H2228 = test system: NCI-H2228
In short: (§1)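 Lung cancer cell lines in 1536-well plates were dosed by pin tool the day after seeding, either with one drug alone or with a fixed anchor-drug dose plus five library-drug doses (not always all listed) in √10 steps. After 5 days, cells were fixed and their nuclei stained in one step (final 0.05% Triton X-100, 1% formaldehyde, 1 ug/ml Hoechst), then counted on 4× images. Relative viability is the nuclei count in treated wells divided by that in vehicle wells. Values are medians of duplicate plates.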

NCI-H647 = test system: NCI-H647
In short: as §1

NCI-H1944 = test system: NCI-H1944
In short: as §1

BEN = test system: BEN
In short: as §1

NCI-H727 = test system: NCI-H727
In short: as §1

NCI-H1650 = test system: NCI-H1650
In short: as §1

NCI-H1792 = test system: NCI-H1792
In short: as §1

NCI-H2405 = test system: NCI-H2405
In short: as §1

LXF-289 = test system: LXF-289
In short: as §1

HCC-827 = test system: HCC-827
In short: as §1

NCI-H3122 = test system: NCI-H3122
In short: as §1

CAL-12T = test system: CAL-12T
In short: as §1

NCI-H322M = test system: NCI-H322M
In short: as §1

LCLC-103H = test system: LCLC-103H
In short: as §1

SK-LU-1 = test system: SK-LU-1
In short: as §1

RERF-LC-KJ = test system: RERF-LC-KJ
In short: as §1

LCLC-97TM1 = test system: LCLC-97TM1
In short: as §1

NCI-H2087 = test system: NCI-H2087
In short: as §1

201T = test system: 201T
In short: as §1

NCI-H1437 = test system: NCI-H1437
In short: as §1

**Q.** COc1cc2nccc(Oc3ccc(NC(=O)Nc4cc(C)on4)c(Cl)c3)c2cc1OC [Tivozanib] + C[C@@H](Oc1cc(-c2cnn(C3CCNCC3)c2)cnc1N)c1c(Cl)ccc(F)c1Cl [Crizotinib] (partner 1 µM) was tested. Which relative viability (NCI-H2228; first compound 0.005 µM) did it give?
**A.** 0.439

**Q.** And the relative viability (NCI-H2228; first compound 0.01581 µM)?
**A.** 0.421

**Q.** What about the relative viability (NCI-H2228; first compound 0.05 µM) of the same compound?
**A.** 0.491

**Q.** What about the relative viability (NCI-H2228; first compound 0.1581 µM) of the same compound?
**A.** 0.453

**Q.** And the relative viability (NCI-H2228; first compound 0.5 µM)?
**A.** 0.605

**Q.** And the relative viability (NCI-H647; first compound 0.005 µM)?
**A.** 0.925

**Q.** And the relative viability (NCI-H647; first compound 0.01581 µM)?
**A.** 1.1

**Q.** And the relative viability (NCI-H647; first compound 0.05 µM)?
**A.** 1.13

**Q.** What about the relative viability (NCI-H647; first compound 0.1581 µM) of the same compound?
**A.** 1.05

**Q.** And the relative viability (NCI-H647; first compound 0.5 µM)?
**A.** 0.991

**Q.** What about the relative viability (NCI-H1944; first compound 0.005 µM) of the same compound?
**A.** 1.13

**Q.** What about the relative viability (NCI-H1944; first compound 0.01581 µM) of the same compound?
**A.** 1.05

**Q.** And the relative viability (NCI-H1944; first compound 0.05 µM)?
**A.** 1.1

**Q.** And the relative viability (NCI-H1944; first compound 0.1581 µM)?
**A.** 1.02

**Q.** And the relative viability (NCI-H1944; first compound 0.5 µM)?
**A.** 1.28

**Q.** What about the relative viability (BEN; first compound 0.005 µM) of the same compound?
**A.** 0.966

**Q.** What about the relative viability (BEN; first compound 0.01581 µM) of the same compound?
**A.** 0.865

**Q.** What about the relative viability (BEN; first compound 0.05 µM) of the same compound?
**A.** 0.647

**Q.** What about the relative viability (BEN; first compound 0.5 µM) of the same compound?
**A.** 1.01

**Q.** And the relative viability (NCI-H727; first compound 0.005 µM)?
**A.** 0.72

**Q.** And the relative viability (NCI-H727; first compound 0.01581 µM)?
**A.** 0.843

**Q.** What about the relative viability (NCI-H727; first compound 0.05 µM) of the same compound?
**A.** 0.833

**Q.** What about the relative viability (NCI-H727; first compound 0.5 µM) of the same compound?
**A.** 0.869

**Q.** And the relative viability (NCI-H1650; first compound 0.005 µM)?
**A.** 0.919

**Q.** What about the relative viability (NCI-H1650; first compound 0.01581 µM) of the same compound?
**A.** 1.13

**Q.** And the relative viability (NCI-H1650; first compound 0.05 µM)?
**A.** 0.952

**Q.** What about the relative viability (NCI-H1650; first compound 0.1581 µM) of the same compound?
**A.** 1.09

**Q.** What about the relative viability (NCI-H1650; first compound 0.5 µM) of the same compound?
**A.** 0.866

**Q.** What about the relative viability (NCI-H1792; first compound 0.005 µM) of the same compound?
**A.** 0.96

**Q.** And the relative viability (NCI-H1792; first compound 0.01581 µM)?
**A.** 1.01

**Q.** And the relative viability (NCI-H1792; first compound 0.05 µM)?
**A.** 1.07

**Q.** And the relative viability (NCI-H1792; first compound 0.1581 µM)?
**A.** 0.933

**Q.** And the relative viability (NCI-H1792; first compound 0.5 µM)?
**A.** 1.07

**Q.** What about the relative viability (NCI-H2405; first compound 0.005 µM) of the same compound?
**A.** 0.859

**Q.** What about the relative viability (NCI-H2405; first compound 0.01581 µM) of the same compound?
**A.** 0.846

**Q.** What about the relative viability (NCI-H2405; first compound 0.05 µM) of the same compound?
**A.** 0.933

**Q.** And the relative viability (NCI-H2405; first compound 0.1581 µM)?
**A.** 0.903

**Q.** And the relative viability (NCI-H2405; first compound 0.5 µM)?
**A.** 0.803

**Q.** And the relative viability (LXF-289; first compound 0.005 µM)?
**A.** 0.762

**Q.** And the relative viability (LXF-289; first compound 0.01581 µM)?
**A.** 0.742

**Q.** What about the relative viability (LXF-289; first compound 0.05 µM) of the same compound?
**A.** 0.82

**Q.** What about the relative viability (LXF-289; first compound 0.1581 µM) of the same compound?
**A.** 0.864

**Q.** What about the relative viability (LXF-289; first compound 0.5 µM) of the same compound?
**A.** 0.705

**Q.** And the relative viability (HCC-827; first compound 0.005 µM)?
**A.** 0.956

**Q.** And the relative viability (HCC-827; first compound 0.01581 µM)?
**A.** 0.928

**Q.** What about the relative viability (HCC-827; first compound 0.05 µM) of the same compound?
**A.** 0.938

**Q.** And the relative viability (HCC-827; first compound 0.1581 µM)?
**A.** 0.988

**Q.** And the relative viability (HCC-827; first compound 0.5 µM)?
**A.** 0.866

**Q.** And the relative viability (NCI-H3122; first compound 0.005 µM)?
**A.** 0.236

**Q.** And the relative viability (NCI-H3122; first compound 0.01581 µM)?
**A.** 0.266

**Q.** And the relative viability (NCI-H3122; first compound 0.05 µM)?
**A.** 0.266

**Q.** What about the relative viability (NCI-H3122; first compound 0.1581 µM) of the same compound?
**A.** 0.29

**Q.** And the relative viability (NCI-H3122; first compound 0.5 µM)?
**A.** 0.32

**Q.** And the relative viability (CAL-12T; first compound 0.005 µM)?
**A.** 0.649

**Q.** And the relative viability (CAL-12T; first compound 0.01581 µM)?
**A.** 0.552

**Q.** And the relative viability (CAL-12T; first compound 0.05 µM)?
**A.** 0.568

**Q.** And the relative viability (CAL-12T; first compound 0.5 µM)?
**A.** 0.614

**Q.** And the relative viability (NCI-H322M; first compound 0.005 µM)?
**A.** 0.9

**Q.** What about the relative viability (NCI-H322M; first compound 0.01581 µM) of the same compound?
**A.** 0.907

**Q.** What about the relative viability (NCI-H322M; first compound 0.05 µM) of the same compound?
**A.** 1.03

**Q.** And the relative viability (NCI-H322M; first compound 0.1581 µM)?
**A.** 0.845

**Q.** And the relative viability (NCI-H322M; first compound 0.5 µM)?
**A.** 0.8

**Q.** What about the relative viability (LCLC-103H; first compound 0.005 µM) of the same compound?
**A.** 1.04

**Q.** And the relative viability (LCLC-103H; first compound 0.01581 µM)?
**A.** 0.952

**Q.** What about the relative viability (LCLC-103H; first compound 0.05 µM) of the same compound?
**A.** 1.04

**Q.** And the relative viability (LCLC-103H; first compound 0.1581 µM)?
**A.** 1.03

**Q.** What about the relative viability (LCLC-103H; first compound 0.5 µM) of the same compound?
**A.** 1.06

**Q.** And the relative viability (SK-LU-1; first compound 0.005 µM)?
**A.** 0.909

**Q.** And the relative viability (SK-LU-1; first compound 0.01581 µM)?
**A.** 0.864

**Q.** And the relative viability (SK-LU-1; first compound 0.05 µM)?
**A.** 0.932

**Q.** And the relative viability (SK-LU-1; first compound 0.1581 µM)?
**A.** 0.614

**Q.** And the relative viability (SK-LU-1; first compound 0.5 µM)?
**A.** 0.84

**Q.** And the relative viability (RERF-LC-KJ; first compound 0.005 µM)?
**A.** 0.771

**Q.** And the relative viability (RERF-LC-KJ; first compound 0.01581 µM)?
**A.** 0.81

**Q.** What about the relative viability (RERF-LC-KJ; first compound 0.05 µM) of the same compound?
**A.** 0.863

**Q.** What about the relative viability (RERF-LC-KJ; first compound 0.1581 µM) of the same compound?
**A.** 0.85

**Q.** And the relative viability (RERF-LC-KJ; first compound 0.5 µM)?
**A.** 0.747

**Q.** What about the relative viability (LCLC-97TM1; first compound 0.005 µM) of the same compound?
**A.** 0.224

**Q.** What about the relative viability (LCLC-97TM1; first compound 0.01581 µM) of the same compound?
**A.** 0.302

**Q.** And the relative viability (LCLC-97TM1; first compound 0.1581 µM)?
**A.** 0.365

**Q.** And the relative viability (LCLC-97TM1; first compound 0.5 µM)?
**A.** 0.46

**Q.** What about the relative viability (NCI-H2087; first compound 0.005 µM) of the same compound?
**A.** 0.797

**Q.** What about the relative viability (NCI-H2087; first compound 0.01581 µM) of the same compound?
**A.** 0.862

**Q.** And the relative viability (NCI-H2087; first compound 0.05 µM)?
**A.** 0.882

**Q.** What about the relative viability (NCI-H2087; first compound 0.1581 µM) of the same compound?
**A.** 0.917

**Q.** What about the relative viability (NCI-H2087; first compound 0.5 µM) of the same compound?
**A.** 0.668

**Q.** And the relative viability (201T; first compound 0.005 µM)?
**A.** 0.981

**Q.** What about the relative viability (201T; first compound 0.01581 µM) of the same compound?
**A.** 1.04

**Q.** And the relative viability (201T; first compound 0.05 µM)?
**A.** 1.06

**Q.** And the relative viability (201T; first compound 0.1581 µM)?
**A.** 1

**Q.** What about the relative viability (201T; first compound 0.5 µM) of the same compound?
**A.** 1.04

**Q.** And the relative viability (NCI-H1437; first compound 0.005 µM)?
**A.** 0.899

**Q.** What about the relative viability (NCI-H1437; first compound 0.01581 µM) of the same compound?
**A.** 0.932

**Q.** What about the relative viability (NCI-H1437; first compound 0.05 µM) of the same compound?
**A.** 0.859

**Q.** And the relative viability (NCI-H1437; first compound 0.1581 µM)?
**A.** 0.947

**Q.** And the relative viability (NCI-H1437; first compound 0.5 µM)?
**A.** 0.824
